7 compounds from PubChem BioAssay (NCI) can be followed below.

The structures appear in SMILES notation.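 How tested: cells in 96-well plates exposed to compound for 48 hours at five concentrations. TGI marks complete inhibition of growth.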

Test systems include UACC-257 melanoma; OVCAR-4 ovarian; NCI-H522 lung; KM12 colon; CAKI-1 renal; PC-3 prostate; RXF 393 renal; HCT-116 colon; 786-0 renal; K-562 leukemia; SK-OV-3 ovarian; HOP-92 NSCLC; NCI-H460 lung; T-47D breast; NCI/ADR-RES ovarian; OVCAR-5 ovarian; SW-620 colon; LOX IMVI melanoma; HL-60(TB) leukemia; TK-10 renal.
Assay in all cases: growth of human tumour cells (NCI), 48 h

Turning to `CC(=O)OC(=C(C#N)C#N)c1nccnc1C(=O)O`, the TGI in the test on UACC-257 melanoma, with OVCAR-4 ovarian, in the test on NCI-H522 lung, with KM12 colon, with CAKI-1 renal and in the test on PC-3 prostate was > 100 µM throughout. The TGI with RXF 393 renal, in the test with HCT-116 colon, in the test with 786-0 renal, in the test with K-562 leukemia, in the test with SK-OV-3 ovarian and in the test with HOP-92 NSCLC was > 100 µM throughout. For the same compound, the TGI in the test with NCI-H460 lung, with T-47D breast, with NCI/ADR-RES ovarian, in the test on OVCAR-5 ovarian, with SW-620 colon and in the test with LOX IMVI melanoma was > 100 µM each time. Moreover, the TGI in the test on HL-60(TB) leukemia is > 100 µM.
On to `CCCCC1CCCCCCc2[nH]c(/C=C3\N=C(c4ccc[nH]4)C=C3OC)cc21` (stereo not drawn), for which the TGI in the test with UACC-257 melanoma worked out at 2.73 µM; in the test with OVCAR-4 ovarian, 4.23 µM; in the test on NCI-H522 lung, 1.38 µM; with KM12 colon, 4.91 µM; in the test with CAKI-1 renal, 4.32 µM; with PC-3 prostate, 2.09 µM. Moreover, the TGI amounted to 1.11 µM in the test on RXF 393 renal; 0.0531 µM in the test on HCT-116 colon; 0.101 µM in the test with 786-0 renal; 1.28 µM in the test with K-562 leukemia; 7.37 µM in the test with SK-OV-3 ovarian; 0.42 µM in the test on HOP-92 NSCLC. Also, the TGI in the test on NCI-H460 lung was 2.92 µM; in the test with T-47D breast it was 2.06 µM; in the test on NCI/ADR-RES ovarian, 0.806 µM; with OVCAR-5 ovarian, 2 µM; in the test with SW-620 colon, 1.15 µM; with HL-60(TB) leukemia, 0.0103 µM. Moreover, in the test on TK-10 renal, the TGI came to 3.18 µM.
On to `CC1(C)[C@H]2CC[C@](C)(C2)[C@]1(S)Cc1ccccn1`, for which the TGI in the test with UACC-257 melanoma was 72.7 µM; with NCI-H522 lung, > 100 µM; with KM12 colon, > 100 µM; in the test on CAKI-1 renal, > 100 µM; with PC-3 prostate, 67.6 µM; with RXF 393 renal, 80.2 µM. Also, the TGI in the test with HCT-116 colon is > 100 µM; with 786-0 renal it was > 100 µM; in the test on K-562 leukemia, > 100 µM; with SK-OV-3 ovarian, 93.6 µM; in the test with HOP-92 NSCLC it was > 100 µM; in the test on NCI-H460 lung, > 100 µM. Further, the TGI was 73.1 µM in the test on T-47D breast; > 100 µM with NCI/ADR-RES ovarian; > 100 µM in the test on OVCAR-5 ovarian; > 100 µM in the test with SW-620 colon; 36.8 µM in the test with LOX IMVI melanoma; 50.9 µM with HL-60(TB) leukemia. The TGI in the test on TK-10 renal was > 100 µM.
As to `CCCCCCCCCCCCCCCCC(=O)NCC(=O)NCC(=O)NC(Cc1ccccc1)C(=O)Oc1ccc([N+](=O)[O-])cc1` (stereo not drawn), the TGI in the test on UACC-257 melanoma was 57.4 µM; with OVCAR-4 ovarian, > 100 µM; with NCI-H522 lung, 55.2 µM; in the test with KM12 colon it was 48.8 µM; in the test on CAKI-1 renal, 32.2 µM; in the test on PC-3 prostate, 86.6 µM. Also, the TGI with RXF 393 renal is 46.6 µM; in the test with HCT-116 colon, 32.6 µM; in the test with 786-0 renal it was 72.9 µM; in the test with K-562 leukemia, 56.6 µM; in the test with HOP-92 NSCLC, > 100 µM; in the test with NCI-H460 lung it was 38.6 µM. For the same compound, the TGI is > 100 µM with T-47D breast; 42.9 µM with NCI/ADR-RES ovarian; 57.7 µM in the test on OVCAR-5 ovarian; 37.2 µM in the test on SW-620 colon; 38.7 µM in the test on LOX IMVI melanoma; > 100 µM with HL-60(TB) leukemia. Further, the TGI in the test with TK-10 renal was > 100 µM.
On to `O=C1CC(C(O)C(O)C(O)CO)CC(=O)N1` (stereo not drawn), for which the TGI in the test with UACC-257 melanoma, in the test with OVCAR-4 ovarian, with NCI-H522 lung, in the test with KM12 colon, in the test on CAKI-1 renal and in the test with PC-3 prostate was > 100 µM throughout. The TGI in the test on RXF 393 renal, in the test on HCT-116 colon, in the test with 786-0 renal, with K-562 leukemia, in the test with HOP-92 NSCLC and in the test with NCI-H460 lung was > 100 µM throughout. Further, the TGI in the test on T-47D breast, in the test with NCI/ADR-RES ovarian, in the test with OVCAR-5 ovarian, with SW-620 colon, in the test on LOX IMVI melanoma and with HL-60(TB) leukemia was > 100 µM in each case. In addition, the TGI with TK-10 renal was > 100 µM.
Consider `CCOC(=O)CC[C@H](NC(=O)c1ccc(CNc2nc3cc(C(F)(F)F)ccc3nc2C(=O)OCC)cc1)C(=O)OCC`, for which the TGI in the test with UACC-257 melanoma is > 100 µM; in the test on NCI-H522 lung, 29.1 µM; in the test on KM12 colon, > 100 µM; in the test with CAKI-1 renal it was 29.5 µM; with PC-3 prostate, > 89.3 µM; in the test on RXF 393 renal, > 100 µM. The TGI in the test with HCT-116 colon was > 100 µM; with 786-0 renal, 18.8 µM; in the test with K-562 leukemia, > 100 µM; in the test on SK-OV-3 ovarian it was > 100 µM; in the test with HOP-92 NSCLC it was 48.9 µM; in the test with NCI-H460 lung it was 77.7 µM. The TGI was 60.8 µM in the test with T-47D breast; > 100 µM in the test with NCI/ADR-RES ovarian; > 86 µM in the test with OVCAR-5 ovarian; > 100 µM with SW-620 colon; > 100 µM in the test with LOX IMVI melanoma; > 100 µM in the test on HL-60(TB) leukemia. Besides, the TGI in the test with TK-10 renal amounted to 38.5 µM.
`CC(=O)N(C(=O)CC(=O)NNCc1ccccc1Cl)c1ccc(Cl)cc1`: the TGI with UACC-257 melanoma, in the test on OVCAR-4 ovarian, in the test with NCI-H522 lung, in the test with KM12 colon, in the test with CAKI-1 renal and in the test with PC-3 prostate was > 10 µM each time. Further, the TGI in the test on RXF 393 renal, with HCT-116 colon, with 786-0 renal, in the test on K-562 leukemia, in the test with SK-OV-3 ovarian and with HOP-92 NSCLC was > 10 µM in each case. For the same compound, the TGI in the test on NCI-H460 lung, in the test on T-47D breast, in the test with NCI/ADR-RES ovarian, in the test with OVCAR-5 ovarian, with LOX IMVI melanoma and in the test on HL-60(TB) leukemia was > 10 µM throughout. In the test on TK-10 renal, the TGI was > 10 µM.
